The source of these data is patent publication EP0642787A2, “Cessation of tobacco use” (ELI LILLY AND COMPANY, priority 1993, dated 1995).

Test [1] deals with 5HT1A receptor. Description: Serotonin syndrome test (antagonism of 8-OH-DPAT-induced signs). Format: in vivo, rats. The conditions noted are these: 4 point scale 0-3; for LLR score / FBP score / lower lip retraction (LLR) score / flat body posture (FBP) score: 8-OH-DPAT alone scores 3. As to the method: Adult male rats are placed singly in clear plastic cages for behavioral observations. Preferably, the cages have metal screen lids and fresh sawdust covering the floor. The animals are adapted to the cages for a short period, and then the compounds to be tested are administered at doses and route determined by the experimenter, based on the probable potency of the test compounds. After 15 minutes, each rat is then given a subcutaneous injection of 0.1 mg/kg of 8-hydroxy-2-dipropylaminotetralin (8-OH-DPAT). Fifteen minutes after administration of the 8-OH-DPAT, the animals are evaluated for evidence of the following signs: reciprocal forepaw treading; Straub tail (rigid or corkscrew); lateral head weaving; hind limb abduction; resting tremor, especially of the head and forepaws; lower-lip retraction; and flat-body posture.
Those signs are produced by 8-OH-DPAT, and the administration of 5HT1A antagonists is able to block or greatly attenuate the appearance of the signs.

Test [2] concerns 5HT1A receptor. Described as above. The conditions noted are these: exception at 1.0 or 10 mg/kg s.c. (dose not specified); 4 point scale 0-3. Format: in vivo, rats.
Test [3] addresses 5HT1A receptor (Homo sapiens, UniProt P08908). The note with it: partial agonist; cited from earlier work.
The mark [4] stands for this setting: 3 mg/kg test compound s.c., then 8-OH-DPAT 0.1 mg/kg s.c.

Chain of 5HT1A receptor (Homo sapiens, UniProt P08908) (P08908 whole entry): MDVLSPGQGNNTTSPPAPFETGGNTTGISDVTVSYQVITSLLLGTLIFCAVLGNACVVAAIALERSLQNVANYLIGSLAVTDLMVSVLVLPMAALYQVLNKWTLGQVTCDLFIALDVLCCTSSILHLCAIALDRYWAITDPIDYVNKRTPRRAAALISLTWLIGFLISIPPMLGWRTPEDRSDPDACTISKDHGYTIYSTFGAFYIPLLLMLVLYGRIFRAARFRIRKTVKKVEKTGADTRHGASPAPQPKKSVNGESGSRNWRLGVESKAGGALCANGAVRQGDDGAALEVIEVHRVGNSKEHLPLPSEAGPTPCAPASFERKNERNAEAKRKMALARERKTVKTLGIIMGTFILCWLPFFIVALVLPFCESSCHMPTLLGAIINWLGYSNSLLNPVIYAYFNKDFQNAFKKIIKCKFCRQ

`OC(CN[C@@H]1C[C@H]2CC[C@@H]1C2)COc1cccc2[nH]ccc12` (relative stereo) [(exo)-1-(4-indolyloxy)-3-norbornylamino-2-propanol]: the LLR score in the test on 5HT1A receptor [1] (1 mg/kg test compound s.c.) and in the test on 5HT1A receptor [1] (10 mg/kg test compound s.c.) was at most 1 throughout. The FBP score in the test with 5HT1A receptor [1] (1.0 mg/kg test compound s.c.) and in the test with 5HT1A receptor [1] (10 mg/kg test compound s.c.) was at most 0.5 each time. For the same molecule, in the test with 5HT1A receptor [2], the “LLR score at 20 minutes after administration of 8-OH-DPAT” value came to 1.25.

As for `O=C(O)C(=O)O.OC(CNCCCCc1ccccc1)COc1cccc2[nH]ccc12` (stereo not shown) [1-(4-indolyloxy)-3-(4-phenylbutylamino)-2-propanol, oxalate salt], the FBP score in the test with 5HT1A receptor [1] (10 mg/kg test compound s.c.) is listed as 1.25. Moreover, the “peak LLR score” value with 5HT1A receptor [1] (10 mg/kg test compound s.c., score quickly declined from its peak) is recorded as 2.

On to `OC(CNC1CCCCCC1)COc1cccc2[nH]ccc12` (stereo not shown) [1-(4-indolyloxy)-3-cycloheptylamino-2-propanol], for which the figures for the LLR score in the test with 5HT1A receptor [1] (1 mg/kg test compound s.c.) and in the test on 5HT1A receptor [1] (10 mg/kg test compound s.c.) were at most 1.75 and 0, respectively. For the same molecule, in the test with 5HT1A receptor [1] (setting [4]), the “lower lip retraction (LLR) score” value is on record as at most 1.75. For the same molecule, in the test with 5HT1A receptor [1] (doses of 1 mg/kg and above s.c.), the FBP score entry is on record as “below 1”.

Turning to `O=C(O)CCC(=O)O.O[C@@H](CNC1CCCCC1)COc1cccc2[nH]ccc12` [(S)-(-)-1-(4-indolyloxy)-3-cyclohexylamino-2-propanol, butanedioate salt], in the test on 5HT1A receptor [1] (0.3 mg/kg test compound s.c.), the “flat body posture (FBP) score” value is “below 2” and the “lower lip retraction (LLR) score” value is listed as “below 2”. Moreover, in the test with 5HT1A receptor [1] (setting [4]), the “flat body posture (FBP) score” value is on record as “completely abolished” and the “lower lip retraction (LLR) score” value is reported as “completely abolished”.

In the case of `O=C1CC2(CCCC2)CC(=O)N1CCCCN1CCN(c2ncccn2)CC1` [Buspirone], the “antagonistic activity at the 5HT1A receptor” value on 5HT1A receptor [3] was “about 30%”.
